From patent US6649763B1, “Optically active quinoline carboxylic acid derivatives with 7-pyrrolidine substituents causing optical activity and a process for the preparation thereof” (Dong Wha Pharm. Ind. Co., Ltd., priority 1999, dated 2003)
In brackets after ≈: the same amount, converted by molar mass.

Assays:
Pharmacokinetic test = details: for Cmax / half-life: SD, rat, in vivo, po, 40 mg/kg
Experimental: After being starved for 16 hours, SD rats were orally administered at a dose of 40 mg/5 ml/kg with the compounds of interest and at a dose of 50 mg/5 ml/kg with the control. Immediately after being drawn at predetermined times from the eyeballs, blood was separated into plasma and other ingredients and quantitatively analyzed for pharmacokinetic parameters by use of high performance liquid chromatograph (HPLC).

[1] = tested on: Staphylococcus aureus 503; assay: Antibacterial activity in vitro (MIC, agar dilution); type: cell-based; details: standard strain Staphylococcus aureus 503, read-out: minimum inhibitory concentration (MIC)
Experimental: (§1) The optically active quinoline carboxylic acid derivatives of the present invention were tested as to whether they could be useful as antibacterial compounds. In this regard, the compounds were measured for minimum inhibitory concentration (MIC: unit μg/ml) according to an agar dilution process (Hoechst 345) in which Muller-Hinton agars were diluted two fold. For comparison, ciprofloxacin and sparfloxacin were used as controls. Corresponding enantiomers and racemates of the compounds of interest were also used as comparative ones. Bacteria were inoculated at an amount of about 10^7 cfu/ml onto each agar. 18 hours after the inoculation at 37° C., the growth of the bacteria was observed. As to methicillin-resistant strains, their growth was observed 48 hours after the inoculation at […]. Hoechst standard strains were used as the test bacteria.

Escherichia coli DC 2 = assay: as above; type: cell-based; details: DC2, standard strain Escherichia coli DC 2, read-out: minimum inhibitory concentration (MIC)
Experimental: as §1

Escherichia coli DC 0 = assay: as above; type: cell-based; details: DC0, standard strain Escherichia coli DC 0, read-out: minimum inhibitory concentration (MIC)
Experimental: as §1

[2] = tested on: Staphylococcus epidermidis 319; assay: as above; type: cell-based; details: Staphylococcus epidermidis, 319, resistant strain Staphylococcus epidermidis 319, read-out: minimum inhibitory concentration (MIC)
Experimental: as §1

[3] = tested on: Staphylococcus epidermidis 329; assay: as above; type: cell-based; details: Staphylococcus epidermidis, 329, resistant strain Staphylococcus epidermidis 329, read-out: minimum inhibitory concentration (MIC)
Experimental: as §1

[4] = tested on: Pseudomonas aeruginosa 1771M; assay: as above; type: cell-based; details: read-out: minimum inhibitory concentration (MIC)
Experimental: as §1

[5] = tested on: Staphylococcus aureus 179; assay: as above; type: cell-based; details: resistant strain Staphylococcus aureus 179, read-out: minimum inhibitory concentration (MIC)
Experimental: as §1

[6] = tested on: Staphylococcus aureus 241; assay: as above; type: cell-based; details: resistant strain Staphylococcus aureus 241, read-out: minimum inhibitory concentration (MIC)
Experimental: as §1

[7] = tested on: Staphylococcus aureus SG511; assay: as above; type: cell-based; details: standard strain Staphylococcus aureus SG511, read-out: minimum inhibitory concentration (MIC)
Experimental: as §1

[8] = tested on: Streptococus pyogenes 308A; assay: as above; type: cell-based; details: standard strain Streptococus pyogenes 308A, read-out: minimum inhibitory concentration (MIC)
Experimental: as §1

[9] = tested on: Staphylococcus aureus 121E; assay: as above; type: cell-based; details: resistant strain Staphylococcus aureus 121E, read-out: minimum inhibitory concentration (MIC)
Experimental: as §1

[10] = tested on: Staphylococcus aureus 285; assay: as above; type: cell-based; details: standard strain Staphylococcus aureus 285, read-out: minimum inhibitory concentration (MIC)
Experimental: as §1

[11] = tested on: Staphylococcus aureus 256E; assay: as above; type: cell-based; details: resistant strain Staphylococcus aureus 256E, read-out: minimum inhibitory concentration (MIC)
Experimental: as §1

[12] = tested on: Streptococus pyogenes 77A; assay: as above; type: cell-based; details: standard strain Streptococus pyogenes 77A, read-out: minimum inhibitory concentration (MIC)
Experimental: as §1

[13] = tested on: Streptococus faecium MD 8b; assay: as above; type: cell-based; details: standard strain Streptococus faecium MD 8b, read-out: minimum inhibitory concentration (MIC)
Experimental: as §1

[14] = tested on: Staphylococcus aureus 690E; assay: as above; type: cell-based; details: resistant strain Staphylococcus aureus 690E, read-out: minimum inhibitory concentration (MIC)
Experimental: as §1

[15] = tested on: Staphylococcus aureus 293; assay: as above; type: cell-based; details: resistant strain Staphylococcus aureus 293, read-out: minimum inhibitory concentration (MIC)
Experimental: as §1

[16] = tested on: Staphylococcus aureus 693E; assay: as above; type: cell-based; details: resistant strain Staphylococcus aureus 693E, read-out: minimum inhibitory concentration (MIC)
Experimental: as §1

[17] = tested on: Staphylococcus aureus 208E; assay: as above; type: cell-based; details: resistant strain Staphylococcus aureus 208E, read-out: minimum inhibitory concentration (MIC)
Experimental: as §1

[18] = tested on: Staphylococcus aureus 303; assay: as above; type: cell-based; details: resistant strain Staphylococcus aureus 303, read-out: minimum inhibitory concentration (MIC)
Experimental: as §1

[19] = tested on: Staphylococcus aureus 692E; assay: as above; type: cell-based; details: resistant strain Staphylococcus aureus 692E, read-out: minimum inhibitory concentration (MIC)
Experimental: as §1

[20] = tested on: Staphylococcus aureus 88E; assay: as above; type: cell-based; details: resistant strain Staphylococcus aureus 88E, read-out: minimum inhibitory concentration (MIC)
Experimental: as §1

Enterobacter cloacae P99 = assay: as above; type: cell-based; details: standard strain Enterobacter cloacae P99, read-out: minimum inhibitory concentration (MIC)
From the text: Corresponding enantiomers and racemates of the compounds of interest were also used as comparative ones. Bacteria were inoculated at an amount of about 10^7 cfu/ml onto each agar. […] Hoechst standard strains were used as the test bacteria.

[21] = tested on: Staphylococcus aureus and Staphylococcus epidermis, both resistant to quinolone antibacterial agents; assay: Antibacterial activity in vitro, potency comparison; type: cell-based; details: for times as potent in antibacterial activity as ciprofloxacin / times as potent in antibacterial activity as sparfloxacin: against resistant Staphylococcus aureus and Staphylococcus epidermis; for fold more potent antibacterial activity than its enantiomer / fold more potent antibacterial activity than its racemate: against resistant staphylcoccus aureus and staphylococcus epidermis (Table 2)
Experimental: as §1

Gram-positive bacteria = assay: as above; type: cell-based; details: against Gram-positive bacteria
Experimental: as §1

Escherichia coli = assay: as above; type: cell-based; details: against Escherichia coli, a representative Gram-negative strain
Experimental: as §1

Phototoxicity test = type: in vivo; details: CD-1 female mice, oral 50 mg/kg; for edema and erythema observed after UV exposure / increase in ear thickness compared with before the UV exposure: after 48 hours of the UV exposure
Experimental: It is known that the presence of a halogen atom at the 8-position of the quinolone nuclei causes phototoxicity.
After 16 hours of starvation, CD-1 female mice were orally administered with a dose of 50 mg/kg of the compounds and allowed to be exposed for 4.5 hours to a UVA light source. The mice were located 15 cm away from the light source. Whether the mice were damaged in their ears was adopted as a main factor for the phototoxicity and determined after 24 hour and 48 hour UV exposure. The edema which the mice suffered were examined by measuring the thickness changes of their ears with the aid of electronic calipers and calculating average values. Also, an observation was made as to whether the mice suffered from erythema.

Compound | MIC [1] [µg/mL] | MIC (Escherichia coli DC 2) [µg/mL] | MIC (Escherichia coli DC 0) [µg/mL] | MIC [4] [µg/mL] | MIC [5] [µg/mL] | MIC [6] [µg/mL] | MIC [7] [µg/mL] | MIC [8] [µg/mL] | MIC [9] [µg/mL] | MIC [10] [µg/mL] | MIC [11] [µg/mL] | MIC [12] [µg/mL] | MIC [13] [µg/mL] | MIC [14] [µg/mL] | MIC [15] [µg/mL] | MIC [16] [µg/mL] | MIC [17] [µg/mL] | MIC [18] [µg/mL] | MIC [19] [µg/mL] | MIC [20] [µg/mL] | other results
O=C(O)c1cn(C2CC2)c2cc(N3CCNCC3)c(F)cc2c1=O [Ciprofloxacin, ciprofloxacin] | 0.391 (≈ 1.18 µM) | 0.098 (≈ 0.296 µM) | 0.195 (≈ 0.589 µM) | 0.098 (≈ 0.296 µM) | 12.5 (≈ 37.7 µM) | 12.5 (≈ 37.7 µM) | 0.195 (≈ 0.589 µM) | 3.12 (≈ 9.43 µM) | 0.781 (≈ 2.36 µM) | 0.781 (≈ 2.36 µM) | 0.781 (≈ 2.36 µM) | 0.391 (≈ 1.18 µM) | 0.391 (≈ 1.18 µM) | 0.391 (≈ 1.18 µM) | 12.5 (≈ 37.7 µM) | 0.391 (≈ 1.18 µM) | 0.781 (≈ 2.36 µM) | 12.5 (≈ 37.7 µM) | 0.391 (≈ 1.18 µM) | 0.781 (≈ 2.36 µM) | Area Under Curve (Pharmacokinetic test; SD rats, oral, control at 50 mg/5 ml/kg): 12720 ng·h/mL; MIC [2]: 100 µg/mL (≈ 302 µM); MIC [3]: 50 µg/mL (≈ 151 µM)
CO/N=C1\CN(c2c(F)c(N)c3c(=O)c(C(=O)O)cn(C4CC4)c3c2F)CC1(C)CN.Cl (single isomer, unassigned; (-)) [Example 14, (−)-5-Amino-7-(4-aminomethyl-4-methyl-3-(Z)-methyloxyiminopyrrolidin-1-yl)-1-cyclopropyl-6,8-difluoro-4-oxo-1,4-dihydro-3-quinolinecarboxylic Acid Hydrochloride] | < 0.002 | < 0.002 | 0.004 | 0.195 | 0.013 | 0.013 | < 0.002 | 0.004 | < 0.002 | < 0.002 | < 0.002 | < 0.002 | 0.013 | < 0.002 | 0.013 | < 0.002 | < 0.002 | 0.013 | < 0.002 | < 0.002 | MIC (Enterobacter cloacae P99): < 0.002 µg/mL; Cmax (Pharmacokinetic test): 6670 ± 3330 ng/mL; half-life (Pharmacokinetic test): 6.94 h; times as potent in antibacterial activity as ciprofloxacin [21]: 129-962 times; times as potent in antibacterial activity as sparfloxacin [21]: 24-481 times; fold more potent antibacterial activity than its enantiomer [21]: 2-63 fold; fold more potent antibacterial activity than its racemate [21]: up to four fold more potent; fold higher antibacterial activity than ciprofloxacin (Gram-positive bacteria): 30-781 fold; fold higher antibacterial activity than sparfloxacin (Gram-positive bacteria): 24-195 fold; fold more potent antibacterial effect than ciprofloxacin (Escherichia coli): 49 fold; fold more potent antibacterial effect than sparfloxacin (Escherichia coli): 12-49 fold; Thickness of mice's ears after UV exposure, After 24 hr (Phototoxicity test; UVA light source): 21.6 ± 0.52; Thickness of mice's ears after UV exposure, After 48 hr (Phototoxicity test; UVA light source): 21.6 ± 0.52; edema and erythema observed after UV exposure (Phototoxicity test): no erythema was observed; increase in ear thickness compared with before the UV exposure (Phototoxicity test): 16.8%; Thickness of mice's ears, Before UV exposure (Phototoxicity test; baseline before UVA): 18.5 ± 0.76; MIC [2]: 0.025 µg/mL; MIC [3]: 0.025 µg/mL
CO/N=C1\CN(c2nc3c(cc2F)c(=O)c(C(=O)O)cn3C2CC2)CC1(C)CN.Cl (single isomer, unassigned; (-)) [Example 9, (−)-7-(4-Aminomethyl-4-methyl-3-(Z)-methyloxyiminopyrrolidin-1-yl)-1-cyclopropyl-6-fluoro-4-oxo-1,4-dihydro[1,8]naphthyridine-3-carboxylic Acid Hydrochloride] | 0.004 | 0.195 | 0.004 | 0.391 | 0.098 | 0.098 | 0.004 | 0.025 | < 0.002 | 0.007 | < 0.002 | 0.013 | 0.049 | < 0.002 | 0.098 | < 0.002 | < 0.002 | 0.098 | < 0.002 | < 0.002 | MIC (Enterobacter cloacae P99): 0.025 µg/mL; Cmax (Pharmacokinetic test): 9060 ± 2040 ng/mL; half-life (Pharmacokinetic test): 4.5 h; times as potent in antibacterial activity as ciprofloxacin [21]: 128-390 times; times as potent in antibacterial activity as sparfloxacin [21]: 24-64 times; fold more potent antibacterial activity than its enantiomer [21]: 8-32 fold; fold more potent antibacterial activity than its racemate [21]: 4 fold; fold higher antibacterial activity than ciprofloxacin (Gram-positive bacteria): 4-112 fold; fold higher antibacterial activity than sparfloxacin (Gram-positive bacteria): 4-30 fold; fold more potent antibacterial effect than ciprofloxacin (Escherichia coli): almost the same antibacterial potency; fold more potent antibacterial effect than sparfloxacin (Escherichia coli): almost the same antibacterial potency
CO/N=C1\CN(c2cc3c(cc2F)c(=O)c(C(=O)O)cn3C2CC2)CC1(C)CN.Cl (single isomer, unassigned; (-)) [Example 19, (−)-7-(4-Aminomethyl-4-methyl-3-(Z)-methyloxyiminopyrrolidin-1-yl)-1-cyclopropyl-6-fluoro-4-oxo-1,4-dihydro-3-quinolinecarboxylic Acid Hydrochloride] | 0.007 | 0.195 | 0.007 | 0.195 | 0.195 | 0.195 | 0.004 | 0.049 | 0.007 | 0.007 | 0.007 | 0.013 | 0.049 | 0.004 | 0.195 | 0.007 | 0.007 | 0.195 | 0.004 | 0.007 | MIC (Enterobacter cloacae P99): 0.025 µg/mL; fold more potent antibacterial activity than its enantiomer [21]: 12-32 fold; fold more potent antibacterial activity than its racemate [21]: Two-fold higher potency; MIC [2]: 0.391 µg/mL; MIC [3]: 0.391 µg/mL
C[C@@H]1CN(c2c(F)c(N)c3c(=O)c(C(=O)O)cn(C4CC4)c3c2F)C[C@H](C)N1 [Sparfloxacin, sparfloxacin] | 0.049 (≈ 0.125 µM) | 0.025 (≈ 0.0637 µM) | 0.195 (≈ 0.497 µM) | 0.098 (≈ 0.25 µM) | 6.25 (≈ 15.9 µM) | 6.25 (≈ 15.9 µM) | 0.098 (≈ 0.25 µM) | 0.391 (≈ 0.996 µM) | 0.098 (≈ 0.25 µM) | 0.009 (≈ 0.0229 µM) | 0.098 (≈ 0.25 µM) | 0.391 (≈ 0.996 µM) | 0.391 (≈ 0.996 µM) | 0.049 (≈ 0.125 µM) | 6.25 (≈ 15.9 µM) | 0.049 (≈ 0.125 µM) | 0.098 (≈ 0.25 µM) | 3.12 (≈ 7.96 µM) | 0.049 (≈ 0.125 µM) | 0.098 (≈ 0.25 µM) | MIC (Enterobacter cloacae P99): 0.007 µg/mL (≈ 0.0178 µM); edema and erythema observed after UV exposure (Phototoxicity test): serious edema and erythema; increase in ear thickness compared with before the UV exposure (Phototoxicity test): 150%; MIC [2]: 12.5 µg/mL (≈ 31.9 µM); MIC [3]: 12.5 µg/mL (≈ 31.9 µM)
